What was measured:
Assay in all cases: KINOMEscan competition binding
Conditions in all cases: compound 1.0 µM
SRPK2 (human) = SRPK2 (human) (UniProt P78362)
EPHB6 (human) = EPHB6 (human) (UniProt O15197)
MYLK4 (human) = MYLK4 (human) (UniProt Q86YV6)
ROCK2 (human) = ROCK2 (human) (UniProt O75116)
IRAK1 (human) = IRAK1 (human) (UniProt P51617)
CAMK1G (human) = CAMK1G (human) (UniProt Q96NX5)
PKN2 (human) = PKN2 (human) (UniProt Q16513)
YSK4 (human) = YSK4 (human) (UniProt Q56UN5)
CDK4 CCND3 (human) = CDK4 CCND3 (human) (UniProt P11802+P30281)
STK25 (human) = STK25 (human) (UniProt O00506)
Chain of STK25 (human) (O00506 whole entry, looked up): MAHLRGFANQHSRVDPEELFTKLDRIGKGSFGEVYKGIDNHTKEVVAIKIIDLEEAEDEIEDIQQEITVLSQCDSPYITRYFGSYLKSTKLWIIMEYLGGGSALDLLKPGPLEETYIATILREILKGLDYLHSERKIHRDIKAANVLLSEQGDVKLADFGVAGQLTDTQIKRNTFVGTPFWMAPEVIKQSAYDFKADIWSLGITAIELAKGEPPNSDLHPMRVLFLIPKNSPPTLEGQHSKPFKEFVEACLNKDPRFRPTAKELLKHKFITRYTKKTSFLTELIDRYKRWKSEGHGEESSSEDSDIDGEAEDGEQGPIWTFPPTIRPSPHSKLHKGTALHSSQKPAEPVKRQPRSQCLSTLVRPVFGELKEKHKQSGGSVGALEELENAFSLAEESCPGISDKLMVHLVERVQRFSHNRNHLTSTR

DAPK3 (human) = DAPK3 (human) (UniProt O43293)
Chain of DAPK3 (human) (O43293 whole entry, looked up): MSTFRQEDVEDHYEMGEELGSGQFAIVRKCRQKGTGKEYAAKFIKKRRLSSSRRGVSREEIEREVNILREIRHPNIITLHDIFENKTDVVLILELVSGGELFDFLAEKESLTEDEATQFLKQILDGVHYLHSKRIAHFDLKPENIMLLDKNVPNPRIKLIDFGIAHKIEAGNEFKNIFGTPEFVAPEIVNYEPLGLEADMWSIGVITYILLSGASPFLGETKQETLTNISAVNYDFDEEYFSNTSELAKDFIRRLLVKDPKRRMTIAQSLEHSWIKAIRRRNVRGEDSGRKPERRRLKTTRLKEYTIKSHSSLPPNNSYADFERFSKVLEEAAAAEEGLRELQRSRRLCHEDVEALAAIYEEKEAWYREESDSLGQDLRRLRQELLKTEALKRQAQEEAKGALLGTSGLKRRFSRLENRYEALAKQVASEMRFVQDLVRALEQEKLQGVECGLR

PIK3CG (human) = PIK3CG (human) (UniProt P48736)
Chain of PIK3CG (human) (P48736 whole entry, looked up): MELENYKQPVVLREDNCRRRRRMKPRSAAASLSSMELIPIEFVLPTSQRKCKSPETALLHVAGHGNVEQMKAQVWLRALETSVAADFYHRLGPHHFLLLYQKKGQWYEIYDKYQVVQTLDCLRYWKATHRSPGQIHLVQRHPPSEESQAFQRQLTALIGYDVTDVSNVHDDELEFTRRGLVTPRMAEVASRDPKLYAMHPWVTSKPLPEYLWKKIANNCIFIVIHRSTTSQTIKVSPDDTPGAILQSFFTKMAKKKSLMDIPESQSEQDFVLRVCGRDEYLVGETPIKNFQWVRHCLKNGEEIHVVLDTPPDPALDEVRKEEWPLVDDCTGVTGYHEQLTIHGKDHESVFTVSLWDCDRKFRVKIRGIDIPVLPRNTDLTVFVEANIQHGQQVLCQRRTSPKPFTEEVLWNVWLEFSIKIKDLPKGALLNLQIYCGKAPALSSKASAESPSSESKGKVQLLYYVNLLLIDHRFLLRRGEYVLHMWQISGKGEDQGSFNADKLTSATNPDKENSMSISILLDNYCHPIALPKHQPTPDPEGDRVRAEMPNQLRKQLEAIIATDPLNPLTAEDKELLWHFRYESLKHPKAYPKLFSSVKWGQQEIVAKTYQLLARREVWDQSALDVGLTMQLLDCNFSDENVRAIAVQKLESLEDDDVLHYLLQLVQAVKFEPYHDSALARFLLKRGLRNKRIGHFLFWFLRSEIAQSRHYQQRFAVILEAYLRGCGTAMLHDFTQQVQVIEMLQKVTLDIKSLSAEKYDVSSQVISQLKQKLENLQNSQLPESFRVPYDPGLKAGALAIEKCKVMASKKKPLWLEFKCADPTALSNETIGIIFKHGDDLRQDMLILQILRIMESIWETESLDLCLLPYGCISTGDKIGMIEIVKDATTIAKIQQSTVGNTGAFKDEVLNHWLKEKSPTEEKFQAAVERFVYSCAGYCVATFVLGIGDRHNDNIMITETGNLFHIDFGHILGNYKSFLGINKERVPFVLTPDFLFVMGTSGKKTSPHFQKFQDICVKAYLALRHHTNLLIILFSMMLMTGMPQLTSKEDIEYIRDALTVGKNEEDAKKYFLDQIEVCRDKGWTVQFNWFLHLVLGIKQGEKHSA

ACVR1B (human) = ACVR1B (human) (UniProt P36896)
PDPK1 (human) = PDPK1 (human) (UniProt O15530)
RIOK1 (human) = RIOK1 (human) (UniProt Q9BRS2)
PIM2 (human) = PIM2 (human) (UniProt Q9P1W9)
Chain of PIM2 (human) (Q9P1W9 whole entry, looked up): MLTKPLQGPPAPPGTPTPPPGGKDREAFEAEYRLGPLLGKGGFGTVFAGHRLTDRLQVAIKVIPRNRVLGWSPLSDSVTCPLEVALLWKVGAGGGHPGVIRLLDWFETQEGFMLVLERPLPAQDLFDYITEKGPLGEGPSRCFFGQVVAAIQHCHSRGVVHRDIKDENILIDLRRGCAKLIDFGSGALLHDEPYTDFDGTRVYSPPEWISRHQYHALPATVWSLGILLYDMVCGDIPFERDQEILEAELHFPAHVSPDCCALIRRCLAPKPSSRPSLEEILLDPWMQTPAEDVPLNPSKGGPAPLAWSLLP

MAP3K9 (human) = MAP3K9 (human) (UniProt P80192)
PRKAA2 (human) = PRKAA2 (human) (UniProt P54646)
[1] = system: KIT (human), P10721 [D816V]
STK33 (human) = STK33 (human) (UniProt Q9BYT3)
CDKL3 (human) = CDKL3 (human) (UniProt Q8IVW4)
NEK2 (human) = NEK2 (human) (UniProt P51955)
MUSK (human) = MUSK (human) (UniProt O15146)
MARK3 (human) = MARK3 (human) (UniProt P27448)
[2] = system: ABL1 (human), P00519 [E255K]
Chain of ABL1 (human), P00519 [E255K] (P00519 whole entry E255K, looked up): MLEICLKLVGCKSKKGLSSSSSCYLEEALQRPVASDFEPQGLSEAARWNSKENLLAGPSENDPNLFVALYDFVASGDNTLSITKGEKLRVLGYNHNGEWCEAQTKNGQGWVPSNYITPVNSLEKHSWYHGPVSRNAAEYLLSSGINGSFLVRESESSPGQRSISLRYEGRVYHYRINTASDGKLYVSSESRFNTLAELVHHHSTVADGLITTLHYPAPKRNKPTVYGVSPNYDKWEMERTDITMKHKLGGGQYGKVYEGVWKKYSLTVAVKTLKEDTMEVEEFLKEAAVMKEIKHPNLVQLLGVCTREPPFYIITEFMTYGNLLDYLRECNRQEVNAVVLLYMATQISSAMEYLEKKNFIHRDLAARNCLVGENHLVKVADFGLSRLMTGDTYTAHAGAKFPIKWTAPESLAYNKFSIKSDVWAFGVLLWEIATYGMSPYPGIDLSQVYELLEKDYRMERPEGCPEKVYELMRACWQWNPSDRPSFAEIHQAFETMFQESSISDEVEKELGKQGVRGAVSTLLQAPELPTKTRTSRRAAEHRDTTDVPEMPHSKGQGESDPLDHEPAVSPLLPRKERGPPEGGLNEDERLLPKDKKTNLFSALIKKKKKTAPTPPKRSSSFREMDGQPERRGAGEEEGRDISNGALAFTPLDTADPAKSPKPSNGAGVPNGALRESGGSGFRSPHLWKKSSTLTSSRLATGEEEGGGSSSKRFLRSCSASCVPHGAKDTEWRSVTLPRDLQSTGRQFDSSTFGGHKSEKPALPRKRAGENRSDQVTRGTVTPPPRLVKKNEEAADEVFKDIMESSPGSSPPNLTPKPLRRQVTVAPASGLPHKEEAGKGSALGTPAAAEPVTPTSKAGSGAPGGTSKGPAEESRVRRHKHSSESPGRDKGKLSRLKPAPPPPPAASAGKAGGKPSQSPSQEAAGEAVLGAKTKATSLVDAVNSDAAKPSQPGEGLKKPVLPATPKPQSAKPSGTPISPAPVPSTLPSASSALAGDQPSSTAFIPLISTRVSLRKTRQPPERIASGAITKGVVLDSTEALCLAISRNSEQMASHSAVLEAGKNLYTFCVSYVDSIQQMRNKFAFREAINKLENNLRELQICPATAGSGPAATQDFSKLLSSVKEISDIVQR

LCK (human) = LCK (human) (UniProt P06239)
[3] = system: EGFR (human), P00533 [G719S]
PRKD3 (human) = PRKD3 (human) (UniProt O94806)
CDK11B (human) = CDK11B (human) (UniProt P21127)
MAP3K11 (human) = MAP3K11 (human) (UniProt Q16584)
PRKCD (human) = PRKCD (human) (UniProt Q05655)
EPHA6 (human) = EPHA6 (human) (UniProt Q9UF33)
PTK2 (human) = PTK2 (human) (UniProt Q05397)
PRKAA1 (human) = PRKAA1 (human) (UniProt Q13131)
CHUK (human) = CHUK (human) (UniProt O15111)
RPS6KA1 KD1 (human) = RPS6KA1 KD1 (human) (UniProt Q15418)
Chain of RPS6KA1 KD1 (human) (Q15418 whole entry, looked up): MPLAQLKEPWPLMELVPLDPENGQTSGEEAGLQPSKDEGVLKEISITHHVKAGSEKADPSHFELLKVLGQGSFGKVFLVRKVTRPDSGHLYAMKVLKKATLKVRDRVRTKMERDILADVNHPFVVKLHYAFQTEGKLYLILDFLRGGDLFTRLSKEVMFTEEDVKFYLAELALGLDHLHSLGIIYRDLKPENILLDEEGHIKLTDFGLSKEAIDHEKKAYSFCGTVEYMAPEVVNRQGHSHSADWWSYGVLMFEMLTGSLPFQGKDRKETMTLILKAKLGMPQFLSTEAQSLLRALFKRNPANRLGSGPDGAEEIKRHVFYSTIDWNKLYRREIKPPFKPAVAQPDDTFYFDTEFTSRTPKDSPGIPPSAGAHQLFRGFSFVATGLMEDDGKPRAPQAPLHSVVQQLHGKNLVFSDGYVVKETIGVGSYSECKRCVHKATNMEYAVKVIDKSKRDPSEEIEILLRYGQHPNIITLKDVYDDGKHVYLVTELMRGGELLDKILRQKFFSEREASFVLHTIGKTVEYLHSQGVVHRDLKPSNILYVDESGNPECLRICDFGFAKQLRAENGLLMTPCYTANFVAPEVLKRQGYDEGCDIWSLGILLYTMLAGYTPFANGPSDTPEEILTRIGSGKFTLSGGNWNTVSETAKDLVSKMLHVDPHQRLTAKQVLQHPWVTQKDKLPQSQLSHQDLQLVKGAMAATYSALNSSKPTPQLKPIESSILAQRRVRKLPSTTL

RPS6KB1 (human) = RPS6KB1 (human) (UniProt P23443)
NEK3 (human) = NEK3 (human) (UniProt P51956)
[4] = system: PIK3CA (human), P42336 [E542K]

Chain of CAMK1G (human) (Q96NX5 whole entry, looked up): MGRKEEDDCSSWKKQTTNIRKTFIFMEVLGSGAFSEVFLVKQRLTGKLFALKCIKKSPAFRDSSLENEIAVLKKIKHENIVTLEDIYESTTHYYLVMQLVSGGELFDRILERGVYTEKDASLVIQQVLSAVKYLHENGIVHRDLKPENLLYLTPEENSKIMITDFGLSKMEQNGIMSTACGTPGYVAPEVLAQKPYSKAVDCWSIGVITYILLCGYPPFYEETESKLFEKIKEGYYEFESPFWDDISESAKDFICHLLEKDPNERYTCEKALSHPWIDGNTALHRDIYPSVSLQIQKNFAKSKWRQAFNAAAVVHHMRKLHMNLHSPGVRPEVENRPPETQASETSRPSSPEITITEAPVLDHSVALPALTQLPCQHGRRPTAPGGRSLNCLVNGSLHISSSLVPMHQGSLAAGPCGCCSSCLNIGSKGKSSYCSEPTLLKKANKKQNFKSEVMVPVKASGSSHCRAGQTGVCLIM
Chain of MYLK4 (human) (Q86YV6 whole entry, looked up): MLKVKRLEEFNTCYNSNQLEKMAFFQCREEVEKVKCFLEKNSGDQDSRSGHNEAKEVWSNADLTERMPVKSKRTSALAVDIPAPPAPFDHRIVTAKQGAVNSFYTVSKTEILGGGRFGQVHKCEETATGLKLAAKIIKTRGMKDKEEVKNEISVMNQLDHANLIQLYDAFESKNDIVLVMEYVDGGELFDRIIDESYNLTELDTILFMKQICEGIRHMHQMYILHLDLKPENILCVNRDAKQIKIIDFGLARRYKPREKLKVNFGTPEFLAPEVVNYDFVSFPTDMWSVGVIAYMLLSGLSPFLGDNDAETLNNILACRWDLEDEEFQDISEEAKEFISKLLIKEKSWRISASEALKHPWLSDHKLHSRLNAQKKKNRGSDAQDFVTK

Q: For `CNc1nc(Nc2ccc(C(=O)N3CCOCC3)cc2OC)ncc1Cl`, which kinase still bound, per cent of control (SRPK2 (human)) is on record?
A: Its kinase still bound, per cent of control is 84%.

Q: And the kinase still bound, per cent of control (EPHB6 (human))?
A: Its kinase still bound, per cent of control is 100%.

Q: And the kinase still bound, per cent of control (MYLK4 (human))?
A: Its kinase still bound, per cent of control is 100%.

Q: And the kinase still bound, per cent of control (ROCK2 (human))?
A: Its kinase still bound, per cent of control is 100%.

Q: And the kinase still bound, per cent of control (IRAK1 (human))?
A: The kinase still bound, per cent of control was 100%.

Q: And the kinase still bound, per cent of control (CAMK1G (human))?
A: The kinase still bound, per cent of control was 96%.

Q: What about the kinase still bound, per cent of control (PKN2 (human)) of the same molecule?
A: The kinase still bound, per cent of control was 79%.

Q: And the kinase still bound, per cent of control (YSK4 (human))?
A: Its kinase still bound, per cent of control is 44%.

Q: And the residual activity (CDK4 CCND3 (human))?
A: The residual activity was 36%.

Q: And the kinase still bound, per cent of control (STK25 (human))?
A: Its kinase still bound, per cent of control is 100%.

Q: And the kinase still bound, per cent of control (DAPK3 (human))?
A: Its kinase still bound, per cent of control is 63%.

Q: What about the kinase still bound, per cent of control (PIK3CG (human)) of the same molecule?
A: Its kinase still bound, per cent of control is 78%.

Q: And the kinase still bound, per cent of control (ACVR1B (human))?
A: Its kinase still bound, per cent of control is 100%.

Q: What about the kinase still bound, per cent of control (PDPK1 (human)) of the same molecule?
A: Its kinase still bound, per cent of control is 95%.

Q: What about the kinase still bound, per cent of control (RIOK1 (human)) of the same molecule?
A: Its kinase still bound, per cent of control is 95%.

Q: And the kinase still bound, per cent of control (PIM2 (human))?
A: The kinase still bound, per cent of control was 100%.

Q: What about the kinase still bound, per cent of control (MAP3K9 (human)) of the same molecule?
A: The kinase still bound, per cent of control was 100%.

Q: What about the kinase still bound, per cent of control (PRKAA2 (human)) of the same molecule?
A: Its kinase still bound, per cent of control is 93%.

Q: And the kinase still bound, per cent of control [1]?
A: Its kinase still bound, per cent of control is 98%.

Q: And the kinase still bound, per cent of control (STK33 (human))?
A: The kinase still bound, per cent of control was 38%.

Q: And the residual activity (CDKL3 (human))?
A: The residual activity was 100%.

Q: What about the kinase still bound, per cent of control (NEK2 (human)) of the same molecule?
A: The kinase still bound, per cent of control was 78%.

Q: What about the kinase still bound, per cent of control (MUSK (human)) of the same molecule?
A: Its kinase still bound, per cent of control is 100%.

Q: What about the kinase still bound, per cent of control (MARK3 (human)) of the same molecule?
A: The kinase still bound, per cent of control was 98%.

Q: What about the kinase still bound, per cent of control [2] of the same molecule?
A: Its kinase still bound, per cent of control is 52%.

Q: And the kinase still bound, per cent of control (LCK (human))?
A: The kinase still bound, per cent of control was 100%.

Q: What about the kinase still bound, per cent of control [3] of the same molecule?
A: The kinase still bound, per cent of control was 100%.

Q: And the kinase still bound, per cent of control (PRKD3 (human))?
A: The kinase still bound, per cent of control was 98%.

Q: What about the residual activity (CDK11B (human)) of the same molecule?
A: Its residual activity is 100%.

Q: And the kinase still bound, per cent of control (MAP3K11 (human))?
A: Its kinase still bound, per cent of control is 100%.

Q: And the kinase still bound, per cent of control (PRKCD (human))?
A: Its kinase still bound, per cent of control is 49%.

Q: What about the kinase still bound, per cent of control (EPHA6 (human)) of the same molecule?
A: Its kinase still bound, per cent of control is 100%.

Q: And the kinase still bound, per cent of control (PTK2 (human))?
A: The kinase still bound, per cent of control was 88%.

Q: What about the kinase still bound, per cent of control (PRKAA1 (human)) of the same molecule?
A: The kinase still bound, per cent of control was 95%.

Q: And the kinase still bound, per cent of control (CHUK (human))?
A: Its kinase still bound, per cent of control is 50%.

Q: And the kinase still bound, per cent of control (RPS6KA1 KD1 (human))?
A: The kinase still bound, per cent of control was 100%.

Q: And the kinase still bound, per cent of control (RPS6KB1 (human))?
A: Its kinase still bound, per cent of control is 85%.

Q: What about the kinase still bound, per cent of control (NEK3 (human)) of the same molecule?
A: The kinase still bound, per cent of control was 100%.

Q: What about the kinase still bound, per cent of control [4] of the same molecule?
A: The kinase still bound, per cent of control was 100%.
